Laboratory results: PubChem BioAssay (NCI)
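Interpolation was linear, between the two tested concentrations surrounding the appropriate level; five concentrations were tested over 48 hours in 96-well plates. TGI: concentration producing complete growth inhibition.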

Legend:
Assay in all cases: NCI-60 cell line screen, 48 h
PC-3 prostate = test system: PC-3 prostate
COLO 205 colon = test system: COLO 205 colon
U251 CNS = test system: U251 CNS
HT29 colon = test system: HT29 colon
UACC-257 melanoma = test system: UACC-257 melanoma
SK-OV-3 ovarian = test system: SK-OV-3 ovarian
EKVX NSCLC = test system: EKVX NSCLC
MOLT-4 leukemia = test system: MOLT-4 leukemia
NCI-H522 lung = test system: NCI-H522 lung
A549 NSCLC = test system: A549 NSCLC
SK-MEL-28 melanoma = test system: SK-MEL-28 melanoma
MALME-3M melanoma = test system: MALME-3M melanoma
OVCAR-8 ovarian = test system: OVCAR-8 ovarian
786-0 renal = test system: 786-0 renal
NCI-H226 lung = test system: NCI-H226 lung
LOX IMVI melanoma = test system: LOX IMVI melanoma
MDA-MB-231 breast = test system: MDA-MB-231 breast
SNB-19 CNS = test system: SNB-19 CNS
CCRF-CEM leukemia = test system: CCRF-CEM leukemia
NCI-H23 lung = test system: NCI-H23 lung
HOP-62 NSCLC = test system: HOP-62 NSCLC
CAKI-1 renal = test system: CAKI-1 renal
A498 renal = test system: A498 renal
OVCAR-3 ovarian = test system: OVCAR-3 ovarian
IGROV1 ovarian = test system: IGROV1 ovarian
ACHN renal = test system: ACHN renal
DU-145 prostate = test system: DU-145 prostate
HCC-2998 colon = test system: HCC-2998 colon
T-47D breast = test system: T-47D breast
NCI-H460 lung = test system: NCI-H460 lung
RXF 393 renal = test system: RXF 393 renal
HOP-92 NSCLC = test system: HOP-92 NSCLC
UACC-62 melanoma = test system: UACC-62 melanoma
KM12 colon = test system: KM12 colon
M14 melanoma = test system: M14 melanoma
K-562 leukemia = test system: K-562 leukemia
SF-295 CNS = test system: SF-295 CNS
MDA-MB-435 = test system: MDA-MB-435
MCF7 breast = test system: MCF7 breast
OVCAR-4 ovarian = test system: OVCAR-4 ovarian
HS 578T breast = test system: HS 578T breast
SF-268 CNS = test system: SF-268 CNS
SW-620 colon = test system: SW-620 colon
SK-MEL-2 melanoma = test system: SK-MEL-2 melanoma
SNB-75 CNS = test system: SNB-75 CNS
UO-31 renal = test system: UO-31 renal
BT-549 breast = test system: BT-549 breast
NCI/ADR-RES ovarian = test system: NCI/ADR-RES ovarian
RPMI-8226 leukemia = test system: RPMI-8226 leukemia
OVCAR-5 ovarian = test system: OVCAR-5 ovarian
SN12C renal = test system: SN12C renal
SK-MEL-5 melanoma = test system: SK-MEL-5 melanoma
TK-10 renal = test system: TK-10 renal
SR leukemia = test system: SR leukemia
HCT-15 colon = test system: HCT-15 colon
HL-60(TB) leukemia = test system: HL-60(TB) leukemia
SF-539 CNS = test system: SF-539 CNS
MDA-N = test system: MDA-N
HCT-116 colon = test system: HCT-116 colon
LXFL 529 NSCLC = test system: LXFL 529 NSCLC
DLD-1 colon = test system: DLD-1 colon
KM20L2 colon = test system: KM20L2 colon
DMS 273 small cell lung = test system: DMS 273 small cell lung
M19-MEL melanoma = test system: M19-MEL melanoma
DMS 114 small cell lung = test system: DMS 114 small cell lung

SMILES: COC(=O)CCCC(=O)C(=Nc1c(Cl)cccc1Cl)NNc1ccc(Cl)cc1
- TGI (PC-3 prostate): > 100 µM
- TGI (COLO 205 colon): 82.4 µM
- TGI (U251 CNS): > 100 µM
- TGI (HT29 colon): > 100 µM
- TGI (UACC-257 melanoma): > 100 µM
- TGI (SK-OV-3 ovarian): > 100 µM
- TGI (EKVX NSCLC): > 100 µM
- TGI (MOLT-4 leukemia): 76.6 µM
- TGI (NCI-H522 lung): > 85.7 µM
- TGI (A549 NSCLC): > 100 µM
- TGI (SK-MEL-28 melanoma): > 100 µM
- TGI (MALME-3M melanoma): > 100 µM
- TGI (OVCAR-8 ovarian): > 100 µM
- TGI (786-0 renal): > 100 µM
- TGI (NCI-H226 lung): > 100 µM
- TGI (LOX IMVI melanoma): > 100 µM
- TGI (MDA-MB-231 breast): > 100 µM
- TGI (SNB-19 CNS): > 100 µM
- TGI (CCRF-CEM leukemia): 75.3 µM
- TGI (NCI-H23 lung): > 100 µM
- TGI (HOP-62 NSCLC): > 100 µM
- TGI (CAKI-1 renal): > 100 µM
- TGI (A498 renal): 88.6 µM
- TGI (OVCAR-3 ovarian): > 100 µM
- TGI (IGROV1 ovarian): > 100 µM
- TGI (ACHN renal): > 100 µM
- TGI (DU-145 prostate): > 100 µM
- TGI (HCC-2998 colon): > 100 µM
- TGI (T-47D breast): > 100 µM
- TGI (NCI-H460 lung): > 100 µM
- TGI (RXF 393 renal): > 68.2 µM
- TGI (HOP-92 NSCLC): > 100 µM
- TGI (UACC-62 melanoma): > 100 µM
- TGI (KM12 colon): > 100 µM
- TGI (M14 melanoma): > 100 µM
- TGI (K-562 leukemia): > 100 µM
- TGI (SF-295 CNS): > 100 µM
- TGI (MDA-MB-435): > 100 µM
- TGI (MCF7 breast): > 100 µM
- TGI (OVCAR-4 ovarian): > 100 µM
- TGI (HS 578T breast): > 100 µM
- TGI (SF-268 CNS): > 100 µM
- TGI (SW-620 colon): > 100 µM
- TGI (SK-MEL-2 melanoma): > 80.3 µM
- TGI (SNB-75 CNS): > 88.9 µM
- TGI (UO-31 renal): > 100 µM
- TGI (BT-549 breast): > 100 µM
- TGI (NCI/ADR-RES ovarian): > 100 µM
- TGI (RPMI-8226 leukemia): > 100 µM
- TGI (OVCAR-5 ovarian): > 100 µM
- TGI (SN12C renal): > 100 µM
- TGI (SK-MEL-5 melanoma): > 90.9 µM
- TGI (TK-10 renal): > 100 µM
- TGI (SR leukemia): > 100 µM
- TGI (HCT-15 colon): > 100 µM
- TGI (HL-60(TB) leukemia): > 100 µM
- TGI (SF-539 CNS): > 100 µM
- TGI (MDA-N): > 100 µM
- TGI (HCT-116 colon): > 100 µM

SMILES: O=c1[nH]c(=O)n(C2CC(O)C(CO)O2)cc1C#Cc1c(F)c(F)c(F)c(F)c1F (configuration not stated)
- TGI (COLO 205 colon): > 100 µM
- TGI (U251 CNS): > 100 µM
- TGI (HT29 colon): > 100 µM
- TGI (UACC-257 melanoma): > 100 µM
- TGI (SK-OV-3 ovarian): > 100 µM
- TGI (EKVX NSCLC): > 100 µM
- TGI (MOLT-4 leukemia): > 100 µM
- TGI (LXFL 529 NSCLC): > 100 µM
- TGI (A549 NSCLC): > 100 µM
- TGI (SK-MEL-28 melanoma): > 100 µM
- TGI (MALME-3M melanoma): > 100 µM
- TGI (OVCAR-8 ovarian): > 100 µM
- TGI (786-0 renal): > 100 µM
- TGI (NCI-H226 lung): > 100 µM
- TGI (DLD-1 colon): > 100 µM
- TGI (LOX IMVI melanoma): > 100 µM
- TGI (SNB-19 CNS): > 100 µM
- TGI (CCRF-CEM leukemia): > 100 µM
- TGI (NCI-H23 lung): > 100 µM
- TGI (HOP-62 NSCLC): > 100 µM
- TGI (CAKI-1 renal): > 100 µM
- TGI (KM20L2 colon): > 100 µM
- TGI (DMS 273 small cell lung): > 100 µM
- TGI (OVCAR-3 ovarian): > 100 µM
- TGI (ACHN renal): > 100 µM
- TGI (HCC-2998 colon): > 100 µM
- TGI (NCI-H460 lung): > 100 µM
- TGI (UACC-62 melanoma): > 100 µM
- TGI (KM12 colon): > 100 µM
- TGI (M14 melanoma): > 100 µM
- TGI (K-562 leukemia): > 100 µM
- TGI (M19-MEL melanoma): > 100 µM
- TGI (SF-295 CNS): > 100 µM
- TGI (OVCAR-4 ovarian): > 100 µM
- TGI (SF-268 CNS): > 100 µM
- TGI (SW-620 colon): > 100 µM
- TGI (SK-MEL-2 melanoma): > 100 µM
- TGI (SNB-75 CNS): > 100 µM
- TGI (UO-31 renal): > 100 µM
- TGI (DMS 114 small cell lung): > 100 µM
- TGI (RPMI-8226 leukemia): > 100 µM
- TGI (OVCAR-5 ovarian): > 100 µM
- TGI (SN12C renal): > 100 µM
- TGI (SK-MEL-5 melanoma): > 100 µM
- TGI (SR leukemia): > 100 µM
- TGI (HCT-15 colon): > 100 µM
- TGI (SF-539 CNS): > 100 µM
- TGI (HCT-116 colon): > 100 µM
